Source: patent US20050069907A1, “Methods for using double-mutant RNA polymerases with reduced discrimination between non-canonical and canonical nucleoside triphosphates” (priority 2002, published 2005)
Marks after values point to notes of the source that are not given here.

Columns and labels:
[1] = tested on: supercoiled pT75; assay: rNTP/dNTP selectivity assay: labeled rNTP vs dNTP incorporation with 4 unlabeled rNTPs; format: biochemical
Description: (§1) Transcription reactions: Transcription reactions were carried out in 40 mM Tris-Cl pH 8.0, 15 mM MgCl2, and 5 mM DTT or 20 mM Manganese Citrate pH 8.0, 5 mM DTT at 37° C. Template, polymerase, and NTP concentrations were as indicated in the legends to the figures and tables. Relative activity determinations were made by taking 4 μl aliquots of reactions at 5, 10, and 20 minute time points and spotting on to DE81 filter paper. Unincorporated nucleotides were separated from incorporated nucleotides by washing the filter paper with 0.5 M KH2PO4 pH 7.0 and retained radioactive nucleotide was quantitated with a Molecular Dynamics phosphorimager. To evaluate rNTP/dNTP selectivity, reactions were run with 4 rNTPs and pT75 as template and α-P^32 rNTPs or α-P^32 dNTPs were used to label the transcripts. The relative rate of incorporation of an rNTP vs. its cognate dNTP was determined from the relative percentages of labeled rNTP vs. dNTP incorporated into DE81 retainable RNA at 5, 10, and 20 minute time points. Apparent miscoding frequencies were determined similarly, though in this instance the template was a single-stranded homopolymer and the reaction contained the complementary unlabeled rNTP, and complementary α-P^32 rNTP or one of the 3 non-complementary α-P^32 rNTPs. The relative percentages of labeled complementary vs. non-complementary rNTPs incorporated at 5, 10 and 20 minute time points gave an apparent miscoding rate. The rNTP/dNTP selectivity assay was used to test the following T7 RNAP mutants for effects on substrate discrimination: D537S, D537E, S539A, R5S1S, D552S, R627S, K631S, L637A, Y639S, Y639F, Y639A, G640A, F644A, G645A, Q649S, […], H811S, H811A, D812A, D812E, D812S, D812N, D879E+ΔF882+ΔA883, D879E+A881T+ΔA883, D879E+F884+A885, D879E+F882Y, D879E+ΔA883, D879E+F882W, D879E.
Relative selectivity of the mutant and W.T. polymerases for dNTPs and rNTPs: FIGS. 1-3 present a qualitative analysis of the structure of the transcripts produced by the W.T. and Y639F polymerases with various combinations of NTPs. […] To obtain a quantitative measure of the relative selectivity of the W.T. and mutant polymerases for dNTPs vs. rNTPs under conditions where transcript structure was not a complicating factor, reactions were carried out in which all 4 rNTPs were present but rNTPs or dNTPs were used to radiolabel the transcripts (see Table I).
Under these conditions the unlabeled rNTPs were present in vast excess relative to the labeling NTPs so labeling dNTPs are almost always incorporated adjacent to rNTPs and into transcripts of nearly uniform rNMP structure. […] This assay was used to screen our collection of T7 RNAP active site mutants for increased dNTP utilization. In this screen dATP incorporation in transcription reactions was examined with all of these mutants using supercoiled pT75 as the template, 4 cold rNTPs, and P32-rATP or P32-dATP to label. […] It has been reported that use of Mn^2+ instead of Mg^2+ decreases substrate discrimination and increases miscoding for a number of polymerases (Tabor and Richardson, 1989; Nivogi and Feldman, 1981). Therefore, the rNTP/dNTP selectivity of the mutant and W.T. enzymes were examined in Mn^2+-citrate buffer (Tabor and Richardson, 1989).

[2] = tested on: poly(dC); assay: Apparent miscoding on homopolymeric template poly(dC); format: biochemical; details: poly(dC)
Description: as §1
An increase in miscoding would be reflected in an increase in the rate of incorporation of the non-complementary NTP into RNA.
Numbers are averages from 2 experiments and reflect the ratio of the percentages of labeled rNTPs incorporated into RNA in reactions in which unlabeled complementary rNTPs were in great excess (0.5 mM) to labeled complementary or non-complementary rNTPs. Templates were at 0.1 mg/ml. Polymerases were at 10^−8 M in Mg^2+ buffer and 10^−7 M in Mn^2+ buffer.
*The upper number refers to results obtained in Mg^2+ buffer, the lower number to results in Mn^2+ buffer. n.d.: G640A, Y639A, Y639S were poorly active in Mn^2+ buffer, or on poly(dT) under all conditions.

[3] = Mg^2+ buffer, range of 2 experiments

Substance | Relative selectivity rCTP/dCTP ([1]; Mg^2+ buffer) | Relative selectivity rGTP/dGTP ([1]; Mg^2+ buffer) | Relative selectivity rUTP/dTTP ([1]; Mg^2+ buffer) | Relative selectivity rATP/dATP [1, 3] | Relative selectivity rATP/dATP ([1]; Mn^2+ buffer) | Relative selectivity rCTP/dCTP ([1]; Mn^2+ buffer) | Relative selectivity rGTP/dGTP ([1]; Mn^2+ buffer) | Relative selectivity rUTP/dTTP ([1]; Mn^2+ buffer) | Relative rate of incorporation GTP/ATP ([2]; Mg^2+ buffer) | Relative rate of incorporation GTP/CTP ([2]; Mg^2+ buffer) | Relative rate of incorporation GTP/ATP ([2]; Mn^2+ buffer) | Relative rate of incorporation GTP/CTP ([2]; Mn^2+ buffer) | Relative rate of incorporation GTP/UTP ([2]; Mn^2+ buffer) | Reduction in selectivity for rNTPs over dNTPs relative to W.T., on average [1] [fold] | Relative rate of incorporation GTP/UTP ([2]; Mg^2+ buffer)
W.T.: wild-type T7 RNA polymerase [reference compound] | 110-150 | 51-67 | 22-25 | 72-83 (Mg)* | 6-14 (Mn)* | 4.3-5.1 | 4.4-6.3 | 2.3-2.8 | 233 | 400 | 9.3 | 32 | 53 (Mn2+)* |  | 
Y639F: T7 RNAP with wild-type tyrosine at position 639 substituted by phenylalanine | 2.4-2.5 | .93-1.6 | 1.7-1.9 | 8.5-10 (Mg)* | .9-1.0 (Mn)* | .55-.80 | .98-.99 | .48-.76 | 338 | 550 | 8 | 40 | 55 | ~20 | >1760
